# Data published in patent US20120010075A1 (priority 2009, published 2012).
# Where two headings read alike, the source gives them in different places.
# Columns and labels:
# [1] = test system: Leptosphaeria nodorum (LEPTNO); experiment: In vitro fungitoxicity of hydrazones with and without copper towards Leptosphaeria nodorum (Example 26); format: cell-based; conditions: 72 h at 25° C.; for inhibition of growth at 0.05 µg/mL: Parastagonospora nodorum, 72 h, copper-minus medium, read-out: LEPTNO % Inhn. Minus Copper Observed
# Phytophthora infestans = format: in vivo, Phytophthora infestans on tomato; conditions: applied 24 h before inoculation, assessed 7 days after inoculation
# [2] = test system: Leptosphaeria nodorum (LEPTNO); experiment: Isolated metal-hydrazone complexes versus parent hydrazones, in vitro, Leptosphaeria nodorum (Example 31, Table 7); format: cell-based; conditions: Parastagonospora nodorum; 0.1 μg/mL; copper-minus medium; 72 h
# Phytophthora capsici = experiment: In vitro fungitoxicity of hydrazones with and without copper towards Phytophthora capsici (Example 28, Table 3); format: cell-based; conditions: 0.050 μg/mL, 48 h; for % Inhn Plus copper Observed: copper-plus AS medium (CuCl2, 50 μM); for inhibition of growth at 0.05 µg/mL: Phytophthora capsici, copper-minus AS medium, read-out: % Inhn Minus copper Observed
# Ustilago maydis = experiment: In vitro fungitoxicity of hydrazones with and without copper towards Ustilago maydis (Example 29, Table 4); format: cell-based; conditions: 1 μg/mL, 48 h; for % Inhn. Plus copper Observed: copper-plus medium (CuCl2, 10 μM); for inhibition of growth at 1 µg/mL: Mycosarcoma maydis, copper-minus medium, read-out: % Inhn. Minus copper Observed
# [3] = test system: Septoria tritici isolate USA-184; experiment: In vitro fungitoxicity of hydrazones with and without copper towards Septoria tritici (Example 30, Table 5); format: cell-based; conditions: Zymoseptoria tritici, 0.05 μg/mL
# [4] = compound 0.05 μg/mL, copper-plus medium (CuCl2.2H2O)
# [5] = hydrazone 50 ppm + 50 μM CuCl2.2H2O, tomato
# [6] = Colby formula, CuCl2, read-out: % Inhibition Plus copper Predicted
# [7] = copper-minus medium, 90 h, read-out: % Inhibition Minus copper Observed
# [8] = copper-plus medium CuCl2, 90 h, read-out: % Inhibition Plus copper Observed
# [9] = test compound Concn. 0.05 μg/mL
# [10] = copper-plus medium (CuCl2 10 μM), test compound Concn. 0.05 μg/mL
# [11] = hydrazone 50 ppm with 50 μM CuCl2.2H2O, tomato late blight
Structure (SMILES),inhibition of growth at 0.05 µg/mL ([1]; compound 0.05 μg/mL) [%],"LEPTNO % Inhn. Plus Copper Observed [1, 4] [%]",TLB % Control (Phytophthora infestans; [5]) [%],inhibition at 0.1 µg/mL [2] [%],% Inhn Plus copper Observed (Phytophthora capsici) [%],inhibition of growth at 0.05 µg/mL (Phytophthora capsici) [%],% Inhn. Plus copper Observed (Ustilago maydis) [%],inhibition of growth at 1 µg/mL (Ustilago maydis) [%],"inhibition at 0.05 µg/mL [3, 6] [%]","inhibition at 0.05 µg/mL [3, 7] [%]","inhibition at 0.05 µg/mL [3, 8] [%]",melting point [°C],"inhibition of growth at 0.05 µg/mL [1, 9] [%]","LEPTNO % Inhn. Plus Copper Observed [1, 10] [%]",TLB % Control (Phytophthora infestans; [11]) [%]
C/C(=N\NC(=O)c1ccccc1Cl)c1cc(Cl)cc(Cl)c1O [Example 67],2.6,91.8,75.0,4.2,,,,,,,,,,,
O=C(N/N=C/c1cc(Cl)cc(Cl)c1O)c1ccc(Cl)cc1 [Example 68],15.8,97.0,75.9,7.1,,,,,,,,,,,
C/C(=N\NC(=O)Cc1ccccc1)c1cc(Cl)cc(Cl)c1O [Example 140],6.7,96.7,81.0,,91.4,0,95.7,0,0,0,96.6,199 to 204,,,
COc1cc(Br)cc(/C=N/NC(=O)c2cccc(Br)c2)c1O [Example 204],7.3,95.5,77.2,,81.9,6,77.0,0,0,0,84.4,,,,
C/C(=N\NC(=O)c1ccccc1)c1ccccc1O [Example 230],9,98.3,65.0,,93.6,5.8,94.4,11.9,43.6,43.6,96.7,185 to 187,,,
O=C(N/N=C/c1cc(C(F)(F)F)cc(Cl)c1O)c1ccccc1 [Example 275],0,98.4,79.7,,91.2,0,92.2,0,16.2,16.2,93.5,216 to 222,,,
O=C(N/N=C/c1cccc(C(F)(F)F)c1O)c1ccccc1O [Example 351],,,,,87.9,0,97.7,27.1,44.4,44.4,97.1,230 to 234,7.7,96.1,100.0
Cc1ccc(C(=O)N/N=C/c2ccc(Cl)c(Cl)c2O)c(O)c1 [Example 364],,,,,23.2,0,92.9,65.5,22.4,22.4,93.7,271 to 278,8.4,95.8,97.0
O=C(N/N=C/c1c(Cl)ccc(Cl)c1O)c1cccc(Cl)c1 [Example 369],,,,,44.5,0,93.6,3.1,9.3,9.3,93.2,232 to 234,7,95.5,98.0
O=C(N/N=C/c1cc(Cl)cc(C(F)(F)F)c1O)c1ccccc1O [Example 384],,,,,71.1,0,96.6,13.6,57.5,57.5,97,258 to 260,28.6,95.8,100.0
O=C(N/N=C/c1c(O)cccc1Cl)c1ccc([N+](=O)[O-])cc1 [Example 405],,,,,85.9,0.6,90.0,9.6,18.8,18.8,89.9,> 300,2.8,96.2,98.0
O=C(N/N=C/c1cccc(Cl)c1O)c1cccc(Cl)c1 [Example 427],,,,,88.6,9.1,89.3,34.3,43.8,43.8,96.7,174 to 178,26.1,97.9,98.0
O=C(N/N=C/c1cc(C(F)(F)F)ccc1O)c1ccccc1O [Example 443],,,,,91.2,2.4,35.3,10.2,5.8,5.8,92,277 to 281,14.6,100.0,83.0
O=C(N/N=C/c1c(C(F)(F)F)ccc(Cl)c1O)c1ccccc1O [Example 455],,,,,30.8,0,96.0,0,27.5,27.5,92.4,278 to 280,16.7,100.0,100.0
C/C(=N\NC(=O)c1ccc(Cl)cc1)c1cc(F)cc(F)c1O [Example 578],,,,,90.4,2.8,93.8,47.4,26.7,26.7,90.7,276 to 280,7.2,98.0,100.0
